Assay: Biological Activity of Selected Compounds of the Invention: Specific Examples of compounds of the invention, with estimated EC50 values determined using an MTT assay for 4-day viability of Raji (Burkitt's) lymphoma cells, a cell line known to highly express MCT1 and to be sensitive to small molecule MCT inhibitors,4 are shown in Table 3. Assay protocols follow those described in the literature.4 Other assays that are not described here but that are standard in the field, such as an assay for competitive inhibition of transport of radiolabeled lactic acid, an MCT substrate, may also be useful in establishing mechanism of action of these compounds.
Conditions: 96 h

CC(C)Cn1c(=O)n(C)c(=O)c2nc(CCCCCO)c(COc3cccc4ncccc34)nc21
EC50: < 50 nM
